Literature values, collected in patent publication US8097602B1, “Method of treating body insect infestation” (Host Pharmaceuticals, LLC, priority 2008, dated 2012).

Settings: at 20° C.

n-alkanes
Surface Tension (dynes/cm): 37.8^1 dynes/cm

n-fluoroalkanes
Surface Tension (dynes/cm): 25.9^1 dynes/cm
